# From patent publication US6737383B1, “Herbicidal oxadiazolidines” (priority 1999, dated 2004)
# Tests used:
# rice = experiment: Test B flood test rice; assay type: in vivo, Oryza sativa
# Method in brief: (§1)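 Read-out is a visual response score from 0 (no effect) to 10 (complete control), assigned by comparison with untreated controls. Treatment was applied at the 2-leaf stage, and plants stayed in the greenhouse for twelve to sixteen days before scoring.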
# duck salad = experiment: Test B flood test duck salad; assay type: in vivo, Heteranthera limosa
# Method in brief: as §1
# corn = experiment: Test B pre/postemergence corn; assay type: in vivo, Zea mays
# Method in brief: (§2)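 Herbicidal effect was estimated by eye on a ten-point control scale after plants spent twelve to sixteen days in a greenhouse following soil or foliar treatment. Foliar sprays targeted plants at one to four leaves; all doses were formulated in a non-phytotoxic solvent with surfactant.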
# velvetleaf = experiment: Test B pre/postemergence velvetleaf; assay type: in vivo, Abutilon theophrasti; details: for Plant response rating, Velvetleaf: scale of 0 to 10 where 0 is no effect and 10 is complete control
# Method in brief: as §2
# morningglory = experiment: Test B pre/postemergence morningglory; assay type: in vivo, Ipomoea hederacea; details: for Plant response rating, Morningglory: scale of 0 to 10 where 0 is no effect and 10 is complete control
# Method in brief: as §2
# smallflower flatsedge = experiment: Test B flood test smallflower flatsedge; assay type: in vivo, Cyperus difformis
# Method in brief: as §1
# pigweed = experiment: Test B pre/postemergence pigweed; assay type: in vivo, Amaranthus retroflexus; details: for Plant response rating, Redroot pigweed: scale of 0 to 10 where 0 is no effect and 10 is complete control
# Method in brief: as §2
# cocklebur = experiment: Test B pre/postemergence cocklebur; assay type: in vivo, Xanthium strumarium
# Method in brief: as §2
# sugar beet = experiment: Test B pre/postemergence sugar beet; assay type: in vivo, Beta vulgaris; details: for Plant response rating, Sugarbeets: scale of 0 to 10 where 0 is no effect and 10 is complete control
# Method in brief: as §2
# purple nutsedge = experiment: Test B pre/postemergence purple nutsedge; assay type: in vivo, Cyperus rotundus; details: for Plant response rating, Nutsedge: scale of 0 to 10 where 0 is no effect and 10 is complete control
# Method in brief: as §2
# wheat = experiment: Test B pre/postemergence wheat; assay type: in vivo, Triticum aestivum; details: for Plant response rating, Wheat: scale of 0 to 10 where 0 is no effect and 10 is complete control
# Method in brief: as §2
# blackgrass = experiment: Test B pre/postemergence blackgrass; assay type: in vivo, Alopecurus myosuroides
# Method in brief: as §2
# surinam grass = experiment: Test B pre/postemergence surinam grass; assay type: in vivo, Brachiaria decumbens
# Method in brief: as §2
# giant foxtail = experiment: Test B pre/postemergence giant foxtail; assay type: in vivo, Setaria faberii
# Method in brief: as §2
# crabgrass = experiment: Test B pre/postemergence crabgrass; assay type: in vivo, Digitaria sanguinalis
# Method in brief: as §2
# rape = experiment: Test B pre/postemergence rape; assay type: in vivo, Brassica napus; details: for Plant response rating, Rape: scale of 0 to 10 where 0 is no effect and 10 is complete control
# Method in brief: as §2
# [1] = Rate 62 g/ha, flood test species, Pre-emergence, visual evaluation after twelve to sixteen days
# [2] = Rate 125 g/ha, under heading Pre-emergence, flood test species, visual evaluation after twelve to sixteen days
# [3] = Rate 250 g/ha, Pre-emergence (flood test species), scale 0 to 10, 0 is no effect, 10 is complete control
# [4] = Rate 500 g/ha, Pre-emergence, flood test species, scale 0 to 10 (0 no effect, 10 complete control)
# [5] = Postemergence, Rate 250 g/ha, scale 0 to 10
# [6] = Postemergence, Rate 500 g/ha, scale of 0 to 10 where 0 is no effect and 10 is complete control
# [7] = Preemergence, Rate 62 g/ha, scale of 0 to 10 where 0 is no effect and 10 is complete control
# [8] = Preemergence, Rate 125 g/ha, scale of 0 to 10 where 0 is no effect and 10 is complete control
# [9] = Preemergence, Rate 250 g/ha, scale 0 to 10, 0 is no effect, 10 is complete control
# [10] = Preemergence, Rate 500 g/ha, scale 0 to 10, 0 is no effect, 10 is complete control
# [11] = Rate 62 g/ha, Postemergence, scale 0 to 10 (0 no effect, 10 complete control)
# [12] = Rate 125 g/ha, Postemergence, scale 0 to 10, 0 is no effect, 10 is complete control
structure (smiles),measurement,setting,value
COC(OC)C(C)n1c(=O)on(C(=O)N(c2ccc(F)cc2)C(C)C)c1=O (stereo not drawn) [Compound 471],"Plant response rating, Rice (0 to 10 scale, 0 is no effect, 10 is complete control)",rice; [1],0
same,"Rice plant response rating (0 to 10 scale, 0 is no effect, 10 is complete control)",rice; [2],0
same,Rice plant response rating,rice; [3],0
same,Rice plant response rating,rice; [4],0
same,"Plant response rating, Ducksalad (0 to 10 scale, 0 is no effect, 10 is complete control)",duck salad; [1],0
same,"Ducksalad plant response rating (0 to 10 scale, 0 is no effect, 10 is complete control)",duck salad; [2],0
same,Ducksalad plant response rating,duck salad; [3],0
same,Ducksalad plant response rating,duck salad; [4],0
same,Corn plant response rating,corn; [5],0
same,Corn plant response rating,corn; [6],0
same,"Plant response rating, Corn",corn; [7],0
same,"Plant response rating, Corn",corn; [8],0
same,Corn plant response rating,corn; [9],2
same,Corn plant response rating,corn; [10],3
same,Corn plant response rating,corn; [11],0
same,Corn plant response rating,corn; [12],0
same,Velvetleaf plant response rating,velvetleaf; [5],2
same,"Plant response rating, Velvetleaf","velvetleaf; Preemergence, Rate 62 g/ha",2
same,"Plant response rating, Velvetleaf","velvetleaf; Preemergence, Rate 125 g/ha",3
same,Velvetleaf plant response rating,velvetleaf; [9],3
same,Velvetleaf plant response rating,velvetleaf; [10],6
same,Velvetleaf plant response rating,velvetleaf; [11],0
same,Velvetleaf plant response rating,velvetleaf; [12],2
same,Morningglory plant response rating,morningglory; [5],4
same,"Plant response rating, Morningglory","morningglory; Preemergence, Rate 62 g/ha",0
same,"Plant response rating, Morningglory","morningglory; Preemergence, Rate 125 g/ha",0
same,Morningglory plant response rating,morningglory; [9],0
same,Morningglory plant response rating,morningglory; [10],0
same,Morningglory plant response rating,morningglory; [11],3
same,Morningglory plant response rating,morningglory; [12],3
same,"Plant response rating, S. Flatsedge (0 to 10 scale, 0 is no effect, 10 is complete control)",smallflower flatsedge; [1],0
same,"S. Flatsedge plant response rating (0 to 10 scale, 0 is no effect, 10 is complete control)",smallflower flatsedge; [2],0
same,S. Flatsedge plant response rating,smallflower flatsedge; [3],0
same,S. Flatsedge plant response rating,smallflower flatsedge; [4],0
same,Redroot pigweed plant response rating,pigweed; [5],2
same,"Plant response rating, Redroot pigweed","pigweed; Preemergence, Rate 62 g/ha",10
same,"Plant response rating, Redroot pigweed","pigweed; Preemergence, Rate 125 g/ha",10
same,Redroot pigweed plant response rating,pigweed; [9],10
same,Redroot pigweed plant response rating,pigweed; [10],10
same,Redroot pigweed plant response rating,pigweed; [11],0
same,Redroot pigweed plant response rating,pigweed; [12],0
same,Cocklebur plant response rating,cocklebur; [5],0
same,Cocklebur plant response rating,cocklebur; [6],0
same,"Plant response rating, Cocklebur",cocklebur; [7],0
same,Cocklebur plant response rating,cocklebur; [9],0
same,Cocklebur plant response rating,cocklebur; [10],0
same,Cocklebur plant response rating,cocklebur; [11],0
same,Cocklebur plant response rating,cocklebur; [12],0
same,Sugarbeets plant response rating,sugar beet; [5],0
same,"Plant response rating, Sugarbeets","sugar beet; Preemergence, Rate 62 g/ha",0
same,"Plant response rating, Sugarbeets","sugar beet; Preemergence, Rate 125 g/ha",2
same,Sugarbeets plant response rating,sugar beet; [9],2
same,Sugarbeets plant response rating,sugar beet; [10],4
same,Sugarbeets plant response rating,sugar beet; [11],0
same,Sugarbeets plant response rating,sugar beet; [12],0
same,Nutsedge plant response rating,purple nutsedge; [5],0
same,"Plant response rating, Nutsedge","purple nutsedge; Preemergence, Rate 62 g/ha",0
same,"Plant response rating, Nutsedge","purple nutsedge; Preemergence, Rate 125 g/ha",0
same,Nutsedge plant response rating,purple nutsedge; [9],0
same,Nutsedge plant response rating,purple nutsedge; [10],0
same,Nutsedge plant response rating,purple nutsedge; [11],0
same,Nutsedge plant response rating,purple nutsedge; [12],0
same,Wheat plant response rating,wheat; [5],0
same,"Plant response rating, Wheat","wheat; Preemergence, Rate 62 g/ha",0
same,"Plant response rating, Wheat","wheat; Preemergence, Rate 125 g/ha",0
same,Wheat plant response rating,wheat; [9],0
same,Wheat plant response rating,wheat; [10],0
same,Wheat plant response rating,wheat; [11],0
same,Wheat plant response rating,wheat; [12],0
same,Blackgrass plant response rating,blackgrass; [5],3
same,Blackgrass plant response rating,blackgrass; [6],7
same,"Plant response rating, Blackgrass",blackgrass; [7],9
same,"Plant response rating, Blackgrass",blackgrass; [8],10
same,Blackgrass plant response rating,blackgrass; [9],10
same,Blackgrass plant response rating,blackgrass; [10],10
same,Blackgrass plant response rating,blackgrass; [11],0
same,Blackgrass plant response rating,blackgrass; [12],2
same,B. signalgrass plant response rating,"surinam grass; Postemergence, Rate 250 g/ha, scale 0 to 10, 0 no effect, 10 complete control",4
same,B. signalgrass plant response rating,surinam grass; [6],6
same,"Plant response rating, B. signalgrass",surinam grass; [7],6
same,"Plant response rating, B. signalgrass",surinam grass; [8],9
same,B. signalgrass plant response rating,surinam grass; [9],10
same,B. signalgrass plant response rating,surinam grass; [10],10
same,B. signalgrass plant response rating,surinam grass; [11],0
same,B. signalgrass plant response rating,surinam grass; [12],0
same,Giant foxtail plant response rating,giant foxtail; [5],7
same,Giant foxtail plant response rating,giant foxtail; [6],8
same,"Plant response rating, Giant foxtail",giant foxtail; [7],10
same,"Plant response rating, Giant foxtail",giant foxtail; [8],10
same,Giant foxtail plant response rating,giant foxtail; [9],10
same,Giant foxtail plant response rating,giant foxtail; [10],10
same,Giant foxtail plant response rating,giant foxtail; [11],0
same,Giant foxtail plant response rating,giant foxtail; [12],1
same,Crabgrass plant response rating,crabgrass; [5],8
same,Crabgrass plant response rating,crabgrass; [6],9
same,"Plant response rating, Crabgrass",crabgrass; [7],9
same,"Plant response rating, Crabgrass",crabgrass; [8],10
same,Crabgrass plant response rating,crabgrass; [9],10
same,Crabgrass plant response rating,crabgrass; [10],10
same,Crabgrass plant response rating,crabgrass; [11],1
same,Crabgrass plant response rating,crabgrass; [12],3
same,Rape plant response rating,rape; [5],0
same,"Plant response rating, Rape","rape; Preemergence, Rate 62 g/ha",2
same,"Plant response rating, Rape","rape; Preemergence, Rate 125 g/ha",2
same,Rape plant response rating,rape; [9],7
same,Rape plant response rating,rape; [10],10
same,Rape plant response rating,rape; [11],0
same,Rape plant response rating,rape; [12],0
